Format in all cases: cell-based
The subject of experiment [1] is Methicillin-resistant S. epidermidis (RP62A).
Experiment [2] has as its system K. pneumoniae (ATCC 13383).
Experiment [3] relates to Methicillin-resistant S. aureus (ATCC 33591).
Experiment [4] relates to E. coli (ATCC 25922).
For experiment [5], the system named is Vancomycin-resistant E. faecalis (ATCC 700802).
The subject of experiment [6] is P. aeruginosa (ATCC 27853).

Like-named read-outs stand apart in the source and are kept apart here.

Regarding Pexiganan, the results for the “MIC S. epidermidis” value in experiment [1] (24 h) and in experiment [1] (value in parentheses) were 8 µg/mL and 3 µM, respectively. The “MIC K. pneumoniae” value in experiment [2] (24 h) amounted to 8 µg/mL; in experiment [2] (value in parentheses) it was 3 µM. Also, the “MIC S. aureus” value came out at 16 µg/mL in experiment [3] (24 h) and 6 µM in experiment [3] (value in parentheses). In addition, the “MIC E. coli” value in experiment [4] (complete growth inhibition after 24 h, highest tested 25 μg/mL) turned out to be 8 µg/mL; in experiment [4] (value in parentheses), 3 µM. The “MIC E. faecalis” value in experiment [5] (24 h) is 32 µg/mL; in experiment [5] (value in parentheses), 12 µM. Further, the results for the “MIC P. aeruginosa” value in experiment [6] (24 h) and in experiment [6] (value in parentheses) were 16 µg/mL and 6 µM, respectively.

(Values after paper PMC3947011 (ACS chemical biology, 2013).)
